# Results published in patent US11339171B2, “MDM2 inhibitors” (Gan & Lee Pharmaceuticals, priority 2017, dated 2022).
# pIC50: −log10 of the molar value.
# Target: T1, MDM2 (Homo sapiens, UniProt Q00987)
# T1 construct: made in house
# Assay: Inhibition test of MDM2-P53 (GST-MDM2, Biotin-P53, Anti-GST-Tb, SA-XL665)
# Format: binding
# Conditions: not given
# Description: Experimental purpose: To determine the inhibitory activities of the compounds of the present invention on MDM2.
# The present experiment uses the following assay methods/instruments/reagents:
# Buffer: 1×PBS+0.1% BSA+5 mM DTT; MDM2 Buffer: Buffer+1 mM AEBSF
# GST-MDM2: The final concentration is 4 nM, and it is required to formulate a 20 nM (5×) solution. A mother liquor is diluted by 3500 folds, wherein the mother liquor is 10-fold diluted first, and then 350-fold diluted.
# Anti-GST-Tb: The final concentration is 2×, and a mother liquor is diluted by 50 folds.
# MIX: GST-MDM2, Biotin-P53, SA-XL665 and Anti-GST-Tb were mixed according to a ratio of 4:4:5:5.
# Sample: Preparation of a sample (10 mM in DMSO) solution: a. 3 μL sample+7 μL DMSO+20 μL DMSO were formulated to give an initial concentration of 1 mM and mixed well; b. in plate 1, twelve 5-fold serial dilutions (sequentially prepared by adding 10 μL of the last sample to 40 μL DMSO) were prepared and mixed well, individually; c. plate 2 was taken, 45 μL of Buffer was added to each well, and 5 μL of dilution at each concentration was taken from plate 1 and added to the corresponding well in plate 2 (the concentration in well 1 was 100 μM), and mixed well.
# 1. 18 μL of MIX was added to a 384-well plate, and centrifugation was performed at 4500 rpm for 5 min.
# 2. 2 μL of sample was added correspondingly to each well, the resultant was centrifuged at 25° C. and 4500 rpm for 5 min, and shaked at 25° C. for 90 min on a shaker.
# Readings were obtained from the Microplate reader, and data was processed by Graphpad Prism 6.0.
# T1 sequence (Q00987 whole entry): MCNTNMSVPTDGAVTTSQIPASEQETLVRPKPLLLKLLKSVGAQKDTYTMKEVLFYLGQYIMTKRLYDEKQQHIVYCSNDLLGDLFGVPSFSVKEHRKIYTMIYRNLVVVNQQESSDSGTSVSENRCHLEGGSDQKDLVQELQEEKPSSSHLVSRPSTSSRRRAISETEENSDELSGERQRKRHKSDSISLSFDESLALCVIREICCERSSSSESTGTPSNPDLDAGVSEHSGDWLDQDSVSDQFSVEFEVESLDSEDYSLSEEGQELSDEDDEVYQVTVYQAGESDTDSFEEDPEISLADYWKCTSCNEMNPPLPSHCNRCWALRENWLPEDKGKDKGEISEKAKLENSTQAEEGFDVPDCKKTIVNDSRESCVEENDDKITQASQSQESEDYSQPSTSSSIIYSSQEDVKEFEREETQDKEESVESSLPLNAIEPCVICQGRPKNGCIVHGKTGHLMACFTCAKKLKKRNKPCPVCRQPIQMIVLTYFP
row,SMILES,pIC50
1,"COc1ncc(-c2nc3c(n2C(C)C)C2(C(=O)Nc4cc(Cl)ccc42)N(c2cc(Cl)ccc2C(C)C)C3=O)c(OC)n1 (stereo not drawn) [Example 156, 6-chloro-5′-(5-chloro-2-isopropylphenyl)-2′-(2,4-dimethoxypyrimidin-5-yl)-3′-isopropyl-3′H-spiro[dihydroindole-3,4′-pyrrolo[3,4-d]imidazole]-2,6′(5′H)-dione]",7.95
2,"CCc1ccccc1-c1nc2c(n1C(C)C)[C@]1(C(=O)Nc3cc(Cl)ccc31)N(c1cc(Cl)ccc1C)C2=O [Example R-7, (R)-6-chloro-5′-(5-chloro-2-methylphenyl)-2′-(2-ethylphenyl)-3′-isopropylisopropyl-3′H-spiro[dihydroindole-3,4′-pyrrolo[3,4-d]imidazole]-2,6′(5′H)-dione]",4.44
3,"COc1ncncc1-c1nc2c(n1C(C)C)[C@]1(C(=O)Nc3cc(Cl)ccc31)N(c1cc(Cl)ccc1C)C2=O [Example R-27, (R)-6-chloro-5′-(5-chloro-2-methylphenyl)-3′-isopropyl-2′-(4-methoxypyrimidin-5-yl)-3′H-spiro[dihydroindole-3,4′-pyrrolo[3,4-d]imidazole]-2,6′(5′H)-dione]",6.03

# Same assay, conditions: labels are Example numbers; the compounds with S-configuration are meant
row,SMILES,inhibitory effect on MDM2 compared with positive control compound HDM201
1,"COc1cccc(OC)c1-c1nc2c(n1C(C)C)C1(C(=O)Nc3cc(Cl)ccc31)N(c1cc(Cl)ccc1C)C2=O (stereo not drawn) [Example 79, 6-chloro-5′-(5-chloro-2-methylphenyl)-2′-(2,6-dimethoxyphenyl)-3′-isopropyl-3′H-spiro[dihydroindole-3,4′-pyrrolo[3,4-d]imidazole]-2,6′(5′H)-dione]",better
2,"COc1cc(N(C)C)ccc1-c1nc2c(n1C(C)C)C1(C(=O)Nc3cc(Cl)ccc31)N(c1cc(Cl)ccc1F)C2=O (stereo not drawn) [Example 81, 6-chloro-5′-(5-chloro-2-fluorophenyl)-2′-(4-(dimethylamino)-2-methoxyphenyl)-3′-isopropyl-3′H-spiro[dihydroindole-3,4′-pyrrolo[3,4-d]imidazole]-2,6′(5′H)-dione]",better
3,"COc1nc(N)ncc1-c1nc2c(n1C(C)C)C1(C(=O)Nc3cc(Cl)ccc31)N(c1cc(Cl)ccc1C)C2=O (stereo not drawn) [Example 90, 2′-(2-amino-4-methoxypyrimidin-5-yl)-6-chloro-5′-(5-chloro-2-methylphenyl)-3′-isopropyl-3′H-spiro[dihydroindole-3,4′-pyrrolo[3,4-d]imidazole]-2,6′(5′H)-dione]",better
4,"COc1cc(OC(C)C)ncc1-c1nc2c(n1C(C)C)C1(C(=O)Nc3cc(Cl)ccc31)N(c1cccc(Cl)c1)C2=O (stereo not drawn) [Example 95, 6-chloro-5′-(3-chlorophenyl)-2′-(6-isopropoxy-4-methoxypyridin-3-yl)-3′-isopropyl-3′H-spiro[dihydroindole-3,4′-pyrrolo[3,4-d]imidazole]-2,6′(5′H)-dione]",better
5,"COc1cc(N(C)C)ncc1-c1nc2c(n1C(C)C)C1(C(=O)Nc3cc(Cl)ccc31)N(c1cc(Cl)ccc1C)C2=O (stereo not drawn) [Example 111, 6-chloro-5′-(5-chloro-2-methylphenyl)-2′-(6-(dimethylamino)-4-methoxypyridin-3-yl)-3′-isopropyl-3′H-spiro[dihydroindole-3,4′-pyrrolo[3,4-d]imidazole]-2,6′(5′H)-dione]",better
6,"COc1nc(N(C)C)ncc1-c1nc2c(n1C(C)C)C1(C(=O)Nc3cc(Cl)ccc31)N(c1cccc(Cl)c1)C2=O (stereo not drawn) [Example 112, 6-chloro-5′-(3-chlorophenyl)-2′-(2-(dimethylamino)-4-methoxypyrimidin-5-yl)-3′-isopropyl-3′ H-spiro[dihydroindole-3,4′-pyrrolo[3,4-d]imidazole]-2,6′ (5′ H)-dione]",better
7,COc1cc(C#N)ccc1-c1nc2c(n1C(C)C)C1(C(=O)Nc3cc(Cl)ccc31)N(c1cccc(Cl)c1)C2=O (stereo not drawn) [Example 128],better
8,"COc1cc(OC)c(-c2nc3c(n2C(C)C)C2(C(=O)Nc4cc(Cl)ccc42)N(c2cc(Cl)ccc2F)C3=O)cn1 (stereo not drawn) [Example 133, 6-chloro-5′-(5-chloro-2-fluorophenyl)-2′-(4,6-dimethoxypyridin-3-yl)-3′-isopropyl-3′H-spiro[dihydroindole-3,4′-pyrrolo[3,4-d]imidazole]-2,6′(5′H)-dione]",better
9,"COc1nc(N(C)C)ncc1-c1nc2c(n1C(C)C)C1(C(=O)Nc3cc(Cl)ccc31)N(c1cc(Cl)cnc1C)C2=O (stereo not drawn) [Example 135, 6-chloro-5′-(5-chloro-2-methylpyridin-3-yl)-2′-(2-(dimethylamino)-4-methoxypyrimidin-5-yl)-3′-isopropyl-3′H-spiro[dihydroindole-3,4′-pyrrolo[3,4-d]imidazole]-2,6′(5′H)-dione]",better
10,"COc1nc(OCCF)ncc1-c1nc2c(n1C(C)C)C1(C(=O)Nc3cc(Cl)ccc31)N(c1cc(Cl)ccc1C)C2=O (stereo not drawn) [Example 140, 6-chloro-5′-(5-chloro-2-methylphenyl)-2′-(2-(2-fluoroethoxy)-4-methoxypyrimidin-5-yl)-3′-isopropyl-3′H-spiro[dihydroindole-3,4′-pyrrolo[3,4-d]imidazole]-2,6′(5′H)-dione]",better
11,"COc1cc(C(F)(F)F)ncc1-c1nc2c(n1C(C)C)C1(C(=O)Nc3cc(Cl)ccc31)N(c1cccc(Cl)c1)C2=O (stereo not drawn) [Example 142, 6-chloro-5′-(3-chlorophenyl)-3′-isopropyl-2′-(4-methoxy-6-(trifluoromethyl)pyridin-3-yl)-3′H-spiro[dihydroindole-3,4′-pyrrolo[3,4-d]imidazole]-2,6′(5′H)-dione]",better
12,"COc1cc(OCCO)ccc1-c1nc2c(n1C(C)C)C1(C(=O)Nc3cc(Cl)ccc31)N(c1cc(Cl)ccc1C)C2=O (stereo not drawn) [Example 148, 6-chloro-5′-(5-chloro-2-methylphenyl)-2′-(4-(2-hydroxyethoxy)-2-methoxyphenyl)-3′-isopropyl-3′H-spiro[dihydroindole-3,4′-pyrrolo[3,4-d]imidazole]-2,6′(5′H)-dione]",better
13,"COc1cc(OC(F)F)ncc1-c1nc2c(n1C(C)C)C1(C(=O)Nc3cc(Cl)ccc31)N(c1cc(Cl)ccc1C)C2=O (stereo not drawn) [Example 150, 6-chloro-5′-(5-chloro-2-methylphenyl)-2′-(6-(difluoromethoxy)-4-methoxypyridin-3-yl)-3′-isopropyl-3′H-spiro[dihydroindole-3,4′-pyrrolo[3,4-d]imidazole]-2,6′(5′H)-dione]",better
14,"COc1cc(C(F)(F)F)ncc1-c1nc2c(n1C(C)C)C1(C(=O)Nc3cc(Cl)ccc31)N(c1cc(Cl)cnc1C)C2=O (stereo not drawn) [Example 152, 6-chloro-5′-(5-chloro-2-methylpyridin-3-yl)-3′-isopropyl-2′-(4-methoxy-6-(trifluoromethyl)pyridine-3-yl)-3′H-spiro[dihydroindole-3,4′-pyrrolo[3,4-d]imidazole]-2,6′(5′H)-dione]",better
15,"COc1cc(OCCF)ncc1-c1nc2c(n1C(C)C)C1(C(=O)Nc3cc(Cl)ccc31)N(c1cc(Cl)ccc1C)C2=O (stereo not drawn) [Example 163, 6-chloro-5′-(5-chloro-2-methylphenyl)-2′-(6-(2-fluoroethoxy)-4-methoxypyridin-3-yl)-3′-isopropyl-3′H-spiro[dihydroindole-3,4′-pyrrolo[3,4-d]imidazole]-2,6′(5′H)-dione]",better
16,"COc1nc(OCCF)ncc1-c1nc2c(n1C(C)C)C1(C(=O)Nc3cc(Cl)ccc31)N(c1cc(Cl)cnc1C)C2=O (stereo not drawn) [Example 170, 6-chloro-5′-(5-chloro-2-methylpyridin-3-yl)-2′-(2-(2-fluoroethoxy)-4-methoxypyrimidin-5-yl)-3′-isopropyl-3′H-spiro[dihydroindole-3,4′-pyrrolo[3,4-d]imidazole]-2,6′(5′H)-dione]",better
17,"COc1cc(OCCF)ncc1-c1nc2c(n1C(C)C)C1(C(=O)Nc3cc(Cl)ccc31)N(c1cc(Cl)cnc1C)C2=O (stereo not drawn) [Example 173, 6-chloro-5′-(5-chloro-2-methylpyridin-3-yl)-2′-(6-(2-fluoroethoxy)-4-methoxypyridin-3-yl)-3′-isopropyl-3′H-spiro[dihydroindole-3,4′-pyrrolo[3,4-d]imidazole]-2,6′(5′H)-dione]",better
18,"COc1cc(OC)c(-c2nc3c(n2C(C)C)C2(C(=O)Nc4cc(Cl)ccc42)N(c2cc(F)cc(Cl)c2)C3=O)cn1 (stereo not drawn) [Example 175, 6-chloro-5′-(3-chloro-5-fluorophenyl)-2′-(4,6-dimethoxypyridin-3-yl)-3′-isopropyl-3′H-spiro[dihydroindole-3,4′-pyrrolo[3,4-d]imidazole]-2,6′(5′H)-dione]",better
